Laboratory results from ChEMBL document CHEMBL1201862, “PubChem BioAssay data set” (2004).
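In this assay, cells in 96-well plates receive the compound at five concentrations for 48 hours. Endpoints are linearly interpolated between the surrounding concentrations. The concentration for 50% growth inhibition is given as GI50.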 The source made the active and inactive calls. Cut-off read from the data, not from the text of the source: active = GI50 up to about 1.1 µM and inactive = higher.

Columns and labels:
Experiment in all cases: growth of human tumour cells (NCI), 48 h
SF-539 = test system: SF-539
SF-295 = test system: SF-295
UO-31 = test system: UO-31
SNB-78 = test system: SNB-78
MCF7 = test system: MCF7
NCI/ADR-RES = test system: NCI/ADR-RES
LOX IMVI = test system: LOX IMVI
HOP-92 = test system: HOP-92
HOP-18 = test system: HOP-18
DMS-273 = test system: DMS-273
CAKI-1 = test system: CAKI-1
OVCAR-4 = test system: OVCAR-4
RXF 631 = test system: RXF 631
XF498 = test system: XF498
SR = test system: SR
MDA-MB-231 = test system: MDA-MB-231
BT-549 = test system: BT-549
NCI-H522 = test system: NCI-H522
NCI-H23 = test system: NCI-H23
Hs-578T = test system: Hs-578T
SW-620 = test system: SW-620
NCI-H460 = test system: NCI-H460
A549 = test system: A549
HOP-62 = test system: HOP-62
K562 = test system: K562
HCC 2998 = test system: HCC 2998
ACHN = test system: ACHN
TK-10 = test system: TK-10
NCI-H226 = test system: NCI-H226
HCT-15 = test system: HCT-15
SK-OV-3 = test system: SK-OV-3
DLD-1 = test system: DLD-1
786-0 = test system: 786-0
HL-60 = test system: HL-60
COLO 205 = test system: COLO 205
SK-MEL-28 = test system: SK-MEL-28
LXFL 529 = test system: LXFL 529
SNB-19 = test system: SNB-19
HT-29 = test system: HT-29
UACC-62 = test system: UACC-62
PC-3 = test system: PC-3
U-251 = test system: U-251
MOLT-4 = test system: MOLT-4
SN12C = test system: SN12C
HCT-116 = test system: HCT-116
DU-145 = test system: DU-145
RPMI-8226 = test system: RPMI-8226
CCRF-CEM = test system: CCRF-CEM
OVCAR-5 = test system: OVCAR-5
A498 = test system: A498
RXF 393 = test system: RXF 393
MDA-MB-435 = test system: MDA-MB-435
OVCAR-3 = test system: OVCAR-3
KM-20L2 = test system: KM-20L2
UACC-257 = test system: UACC-257
M14 = test system: M14
SK-MEL-5 = test system: SK-MEL-5
OVCAR-8 = test system: OVCAR-8
Malme-3M = test system: Malme-3M
M19-MEL = test system: M19-MEL
DMS-114 = test system: DMS-114
SNB-75 = test system: SNB-75
EKVX = test system: EKVX
MDA-N = test system: MDA-N

COc1ccc(/C=C\c2cc(OC)c(OC)c(OC)c2)cc1OC(=O)NCCN(C)C
GI50 (SF-539): 0.133 nM (active) | GI50 (SF-295): 0.119 nM (active) | GI50 (UO-31): 4.11 nM (active) | GI50 (SNB-78): < 0.1 nM (active) | GI50 (MCF7): 3.34 nM (active) | GI50 (NCI/ADR-RES): < 0.1 nM (active) | GI50 (LOX IMVI): 0.147 nM (active) | GI50 (HOP-92): < 0.1 nM (active) | GI50 (HOP-18): 16800 nM (inactive) | GI50 (DMS-273): < 0.1 nM (active) | GI50 (CAKI-1): 38.6 nM (active) | GI50 (OVCAR-4): 1.44 nM (active) | GI50 (RXF 631): 0.196 nM (active) | GI50 (XF498): < 0.1 nM (active) | GI50 (SR): 0.154 nM (active) | GI50 (MDA-MB-231): 10 nM (active) | GI50 (BT-549): 830 nM (active) | GI50 (NCI-H522): 0.119 nM (active) | GI50 (NCI-H23): 0.121 nM (active) | GI50 (Hs-578T): 0.137 nM (active) | GI50 (SW-620): < 0.1 nM (active) | GI50 (NCI-H460): 0.125 nM (active) | GI50 (A549): 1.87 nM (active) | GI50 (HOP-62): 0.151 nM (active) | GI50 (K562): < 0.1 nM (active) | GI50 (HCC 2998): 63.1 nM (active) | GI50 (ACHN): 0.659 nM (active) | GI50 (TK-10): 297 nM (active) | GI50 (NCI-H226): 6.4 nM (active) | GI50 (HCT-15): 0.132 nM | GI50 (SK-OV-3): 3.39 nM (active) | GI50 (DLD-1): < 0.1 nM (active) | GI50 (786-0): 1.61 nM (active) | GI50 (HL-60): < 0.1 nM (active) | GI50 (COLO 205): 215 nM (active) | GI50 (SK-MEL-28): 11800 nM (inactive) | GI50 (LXFL 529): < 0.1 nM (active) | GI50 (SNB-19): 0.178 nM (active) | GI50 (HT-29): 526 nM (active) | GI50 (UACC-62): < 0.1 nM (active) | GI50 (PC-3): 0.152 nM (active) | GI50 (U-251): 0.125 nM (active) | GI50 (MOLT-4): 0.145 nM (active) | GI50 (SN12C): 0.244 nM (active) | GI50 (HCT-116): < 0.1 nM (active) | GI50 (DU-145): 0.307 nM (active) | GI50 (RPMI-8226): 0.14 nM (active) | GI50 (CCRF-CEM): 0.133 nM (active) | GI50 (OVCAR-5): 7.64 nM (active) | GI50 (A498): 0.269 nM (active) | GI50 (RXF 393): < 0.1 nM (active) | GI50 (MDA-MB-435): < 0.1 nM (active) | GI50 (OVCAR-3): 0.107 nM (active) | GI50 (KM-20L2): 136 nM (active) | GI50 (UACC-257): 8.39 nM (active) | GI50 (M14): 0.156 nM (active) | GI50 (SK-MEL-5): < 0.1 nM (active) | GI50 (OVCAR-8): 0.143 nM (active) | GI50 (Malme-3M): 2.84 nM (active) | GI50 (M19-MEL): < 0.1 nM (active) | GI50 (DMS-114): < 0.1 nM (active) | GI50 (SNB-75): 0.215 nM (active) | GI50 (EKVX): < 24.7 nM (active) | GI50 (MDA-N): < 0.1 nM (active)
